Test results: patent US12091411B2, “IRAK degraders and uses thereof” (Kymera Therapeutics, Inc., priority 2022, dated 2024)
Like-named read-outs stand apart in the source and are kept apart here.

Target: T1, IRAK4 (Homo sapiens, UniProt Q9NWZ3)
T1 construct: Degradation of IRAK4 in OCI-LY10 was quantitatively measured using Meso Scale Discovery technology; endogenous in cells; host or cells: OCI-LY10
T1 sequence (Q9NWZ3 1-460): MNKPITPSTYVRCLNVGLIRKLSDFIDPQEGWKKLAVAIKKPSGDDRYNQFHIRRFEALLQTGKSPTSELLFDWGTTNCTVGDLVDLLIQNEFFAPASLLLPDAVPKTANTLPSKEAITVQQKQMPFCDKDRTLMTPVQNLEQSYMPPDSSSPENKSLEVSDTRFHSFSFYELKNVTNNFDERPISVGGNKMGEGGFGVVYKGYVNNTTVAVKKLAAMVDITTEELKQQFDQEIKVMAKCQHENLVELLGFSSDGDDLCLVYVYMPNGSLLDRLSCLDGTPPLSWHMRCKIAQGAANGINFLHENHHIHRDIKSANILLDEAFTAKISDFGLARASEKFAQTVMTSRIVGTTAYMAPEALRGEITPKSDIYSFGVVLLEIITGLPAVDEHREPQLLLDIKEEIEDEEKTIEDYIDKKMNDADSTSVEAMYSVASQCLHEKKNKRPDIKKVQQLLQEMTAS
Assay: IRAK4 MSD Degradation in OCI-LY10
Type: cell-based
Details: OCI-LY10 cells, MSD
In short: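 OCI-LY10 cells exposed to 8-point 1:3 compound series (top 1 to 10 μM) for 4 to 24 h at 37 °C, 5% CO2. Lysate IRAK4 quantified by MSD sandwich immunoassay. DC50 from three-parameter logistic fit, binned A (<0.01 μM) to D (>0.2 μM or not tested).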

[1] = 4 hrs incubation, read-out: IRAK4 degradation in OCI-LY10 at 4 hrs: DC50
[2] = 24 hrs incubation, read-out: IRAK4 degradation in OCI-LY10 at 24 hrs: DC50

Cn1c(=O)n(C2CCC(=O)NC2=O)c2cccc([C@H]3CCN(C[C@H]4CC[C@H](n5cc6cc(NC(=O)c7cccc(C(F)F)n7)c(C(C)(C)O)cc6n5)CC4)C[C@@H]3F)c21 (stereo partly drawn) [I-654] gave a DC50 [1] greater than 200 nM and a DC50 [2] greater than 200 nM.

In the case of Cn1c(=O)n(C2CCC(=O)NC2=O)c2cccc([C@H]3CCN(C[C@H]4CC[C@H](n5cc6cc(NC(=O)c7cccc(C(F)F)n7)c(C(C)(C)O)cc6n5)CC4)C[C@H]3F)c21 (stereo partly drawn) [I-655], the DC50 [1] is reported as greater than 200 nM and the DC50 [2] is reported as greater than 200 nM.

In the case of Cn1c(=O)n(C2CCC(=O)NC2=O)c2cccc([C@H]3CCN(C[C@H]4CC[C@H](n5cc6cc(NC(=O)c7cccc(C(F)(F)F)n7)ncc6n5)CC4)C[C@@H]3F)c21 (stereo partly drawn) [I-657], the DC50 [1] is reported as greater than 200 nM and the DC50 [2] is reported as greater than 200 nM.

With Cn1c(=O)n(C2CCC(=O)NC2=O)c2cccc(N3CCN(CC4COC5(C4)CN(C[C@H]4CC[C@H](n6cc(NC(=O)c7cnn8ccc(N9C[C@H]%10C[C@@H]9CO%10)nc78)c(C(F)F)n6)CC4)C5)CC3)c21 (stereo partly drawn) [I-660] the DC50 [1] was greater than 200 nM and the DC50 [2] was less than 10 nM.

Cn1c(=O)n(C2CCC(=O)NC2=O)c2cccc(N3CCN(CC4COC5(C4)CN(C[C@H]4CC[C@H](n6cc7cc(NC(=O)c8cccc(C(F)(F)F)n8)ccc7n6)CC4)C5)CC3)c21 (stereo partly drawn) [I-661] was tested, and the DC50 [1] was greater than 200 nM and the DC50 [2] was greater than 200 nM.

In the case of Cn1c(=O)n(C2CCC(=O)NC2=O)c2cccc(N3CCN(CC4COC5(C4)CN(C[C@H]4CC[C@H](n6cc7cc(NC(=O)c8cccc(C(F)(F)F)n8)ncc7n6)CC4)C5)CC3)c21 (stereo partly drawn) [I-662], the DC50 [1] is reported as greater than 200 nM and the DC50 [2] is reported as greater than 200 nM.

Cn1c(=O)n(C2CCC(=O)NC2=O)c2cccc(N3CCN(CC4COC5(C4)CN(C[C@H]4CC[C@H](n6cc7cc(NC(=O)c8cccc(C(F)(F)F)n8)c(C(C)(C)O)cc7n6)CC4)C5)CC3)c21 (stereo partly drawn) [I-663] showed a DC50 [1] greater than 200 nM and a DC50 [2] greater than 200 nM.

In the case of Cn1c(=O)n(C2CCC(=O)NC2=O)c2cccc(C3CCN(CC4COC5(C4)CN(C[C@H]4CC[C@H](n6cc(NC(=O)c7cnn8ccc(N9C[C@H]%10C[C@@H]9CO%10)nc78)c(C(F)F)n6)CC4)C5)CC3)c21 (stereo partly drawn) [I-664], the DC50 [1] is reported as greater than 200 nM and the DC50 [2] is reported as greater than 200 nM.

In the case of Cn1c(=O)n(C2CCC(=O)NC2=O)c2cccc(N3CCN(CC4COC5(C4)CN(C[C@H]4CC[C@H](n6cc7cc(NC(=O)c8cccc(C(F)(F)F)n8)ccc7n6)CC4)C5)CC3)c21 (stereo partly drawn) [I-665], the DC50 [1] is reported as greater than 200 nM.

For Cn1c(=O)n(C2CCC(=O)NC2=O)c2cccc(N3CCN(CC4COC5(C4)CN(C[C@H]4CC[C@H](n6cc7cc(NC(=O)c8cccc(C(F)(F)F)n8)ncc7n6)CC4)C5)CC3)c21 (stereo partly drawn) [I-666], the DC50 [1] was greater than 200 nM.

In the case of Cn1c(=O)n(C2CCC(=O)NC2=O)c2cccc(C3CCN(CC4COC5(C4)CN(C[C@H]4CC[C@H](n6cc7cc(NC(=O)c8cccc(C(F)(F)F)n8)c(C(C)(C)O)cc7n6)CC4)C5)CC3)c21 (stereo partly drawn) [I-667], the DC50 [1] is reported as greater than 200 nM and the DC50 [2] is reported as greater than 200 nM.

Work on Cn1c(=O)n(C2CCC(=O)NC2=O)c2cccc(N3CC4(CCN(C[C@H]5CC[C@H](n6cc7cc(NC(=O)c8cccc(C(F)(F)F)n8)ncc7n6)CC5)CC4(F)F)C3)c21 (stereo partly drawn) [I-668] yielded a DC50 [1] greater than 200 nM and a DC50 [2] of 10 to 100 nM.

Cn1c(=O)n(C2CCC(=O)NC2=O)c2cccc(N3CC4(CCN(C[C@H]5CC[C@H](n6cc(NC(=O)c7cnn8ccc(N9C[C@H]%10C[C@@H]9CO%10)nc78)c(C(F)F)n6)CC5)CC4(F)F)C3)c21 (stereo partly drawn) [I-669] showed a DC50 [1] greater than 200 nM and a DC50 [2] of less than 10 nM.

Work on Cn1c(=O)n(C2CCC(=O)NC2=O)c2cccc(OC3CC(N4CCN(C[C@H]5CC[C@H](n6cc(NC(=O)c7cnn8ccc(N9C[C@H]%10C[C@@H]9CO%10)nc78)c(C(F)F)n6)CC5)CC4)C3)c21 (stereo partly drawn) [I-670] yielded a DC50 [1] greater than 200 nM and a DC50 [2] of less than 10 nM.

Work on Cn1c(=O)n(C2CCC(=O)NC2=O)c2cccc(C3CN([C@H]4CCN(C[C@H]5CC[C@H](n6cc7cc(NC(=O)c8cccc(C(F)(F)F)n8)ccc7n6)CC5)C[C@@H]4F)C3)c21 (stereo partly drawn) [I-671] yielded a DC50 [1] greater than 200 nM and a DC50 [2] of less than 10 nM.

Cn1c(=O)n(C2CCC(=O)NC2=O)c2cccc(C3CN([C@H]4CCN(C[C@H]5CC[C@H](n6cc7cc(NC(=O)c8cccc(C(F)(F)F)n8)ncc7n6)CC5)C[C@@H]4F)C3)c21 (stereo partly drawn) [I-672] was tested, and the DC50 [1] was greater than 200 nM and the DC50 [2] was less than 10 nM.
